Results: US20120014918A1, “ADDITION SALTS OF AMINES CONTAINING HYDROXYL AND/OR CARBOXYLIC GROUPS WITH AMINO NICOTINIC ACID DERIVATIVES AS DHODH INHIBITORS” (priority 2009, published 2012)
Structures can show the parent of a compound that is named as a salt.

What was measured:
Format in all cases: physicochemical
[1] = Water-solubility test; settings: 25° C. (room temperature), expressed as acid
[2] = Dynamic Vapour Sorption (DVS) profiles; settings: 25° C.; for Hygroscopicity according to the DVS pattern: sorption 0 to 95% RH and desorption; for Hysteresis in the DVS pattern: sorption/desorption isotherms; for Mass increase at 80% relative humidity: 80% RH; for Mass increase at 90% relative humidity: 90% RH
Protocol: Dynamic Vapour Sorption (DVS) profiles were obtained using an Igasorp Hiden Isochema instrument (serial number IGA-SA-066). After an initial stabilization period, at least two isotherms (at 25° C.) were obtained for each sample: a moisture sorption from 0 to 95% relative humidity and moisture desorption from 95% relative humidity to dryness. Both isotherms were performed in 10% humidity steps, with a minimum time of 10 minutes and a maximum time of 30 minutes for each step.

[3] = Differential scanning calorimetry (DSC) thermograms; settings: heated 30 to 350° C. at 10° C./min
Protocol: The differential scanning calorimetry (DSC) thermograms analyses were obtained using a DSC-821 Mettler-Toledo instrument, serial number 5117423874. Samples were weighed into an aluminium pan, an aluminium lid placed on top of the sample and compressed with a brass rod. Samples were equilibrated at 30° C. and heated at 10° C./min to 350° C. The instrument was calibrated using indium and zinc standards.

| SMILES | Water Solubility @ 25° C. (mg/mL as acid) [1] [mg/mL] | Hygroscopicity according to the DVS pattern [2] | Mass increase at 80% relative humidity [2] [%] | Mass increase at 90% relative humidity [2] [%] | Stability (no conversion into other polymorphs, no decomposition) from DSC thermogram [3] | Hysteresis in the DVS pattern [2] |
| --- | --- | --- | --- | --- | --- | --- |
| Cc1c(-c2ccccc2)cc(F)c(Nc2ncccc2C(=O)O)c1F [Ex. 4, 2-(3,5-difluoro-2-methylbiphenyl-4-ylamino)nicotinic acid, meglumine salt] | 0.210 | not hygroscopic | – | – | – | – |
| COc1cccc(-c2cc(F)c(Nc3ncccc3C(=O)O)c(F)c2)c1 [Ex. 1, 2-[(3,5-difluoro-3′-methoxy-1,1′-biphenyl-4-yl)amino]nicotinic acid, meglumine salt] | 2.810 | not hygroscopic | – | – | high stability | no hysteresis |
| Cc1c(-c2ccccc2)cc(F)c(Nc2ncccc2C(=O)O)c1F [Ex. 5, 2-(3,5-difluoro-2-methylbiphenyl-4-ylamino)nicotinic acid, tromethamine salt] | 0.490 | a bit hygroscopic | 5.7 | 14.9 | – | without hysteresis |
| COc1cccc(-c2cc(F)c(Nc3ncccc3C(=O)O)c(F)c2)c1 [Ex. 6, 2-[(3,5-difluoro-3′-methoxy-1,1′-biphenyl-4-yl)amino]nicotinic acid, L-arginine salt] | – | – | – | – | high stability | – |
| COc1cccc(-c2cc(F)c(Nc3ncccc3C(=O)O)c(F)c2)c1 [C1, 2-[(3,5-difluoro-3′-methoxy-1,1′-biphenyl-4-yl)amino]nicotinic acid, reference compound] | 0.004 | – | – | – | – | – |
| COc1cccc(-c2cc(F)c(Nc3ncccc3C(=O)O)c(F)c2)c1 [Ex. 2, 2-[(3,5-difluoro-3′-methoxy-1,1′-biphenyl-4-yl)amino]nicotinic acid, tromethamine salt] | 0.870 | not hygroscopic | – | – | high stability | no hysteresis |
| CCOc1cccc(-c2ccc(Nc3ncccc3C(=O)O)c(OC(F)(F)F)c2)c1 [Ex. 3, 2-(3′-ethoxy-3-(trifluoromethoxy)biphenyl-4-ylamino)nicotinic acid, meglumine salt] | 0.478 | slightly hygroscopic | 2.7 | 6.2 | high stability | no hysteresis |

Further lines, with some results ahead:

| Water Solubility @ 25° C. (mg/mL as acid) [1] [mg/mL] | Hygroscopicity according to the DVS pattern [2] | Mass increase at 80% relative humidity [2] [%] | Mass increase at 90% relative humidity [2] [%] | SMILES | Stability (no conversion into other polymorphs, no decomposition) from DSC thermogram [3] | Hysteresis in the DVS pattern [2] |
| --- | --- | --- | --- | --- | --- | --- |
| 0.002 | – | – | – | Cc1c(-c2ccccc2)cc(F)c(Nc2ncccc2C(=O)O)c1F [C3, 2-[(3,5-difluoro-2-methyl-1,1′-biphenyl-4-yl)amino]nicotinic acid, reference compound] | – | – |
| 0.008 | – | – | – | CCOc1cccc(-c2ccc(Nc3ncccc3C(=O)O)c(OC(F)(F)F)c2)c1 [C2, 2-{[3′-ethoxy-3-(trifluoromethoxy)-1,1′-biphenyl-4-yl]amino}nicotinic acid, reference compound] | – | – |
